# Data taken from paper PMC9415509, “Pro-Apoptotic Antitumoral Effect of Novel Acridine-Core Naphthoquinone Compounds against Oral Squamous Cell Carcinoma” (Molecules, 2022).
# Where “and” joins values, the source holds several entries; their conditions need not be identical. Equal values may be shown once.
# What was measured:
# [1] = test system: SCC9 (OSCC cell); assay: MTT cell viability assay (cytotoxicity), SCC9; format: cell-based, human
# Procedure: (§1) Cells and reagents. Human SCC-4, SCC-9, and SCC-25 cells, derived from a human oral tongue SCC (squamous cell carcinoma) were obtained from the ATCC (CRL-1624, CRL-1629, and CRL-1628, respectively) and maintained in 1:1 DMEM/F12 (Dulbecco’s modified Eagle medium and Ham’s F12 medium; Gibco (Thermo Fisher, Waltham, MA, USA)) supplemented with 10% (v/v) FBS (fetal bovine serum; Invitrogen, Thermo Fisher, Waltham, MA, USA) and 400 ng/mL hydrocortisone (Sigma-Aldrich Co., St. Louis, MO, USA). Primary normal human gingival fibroblasts were obtained from the ATCC (PCS-201-018) and maintained in DMEM supplemented with 10% (v/v) FBS and were used in a maximum of six passages. The cells were grown in a humidified environment containing 5% CO2 at 37 °C. […] Carboplatin stock was prepared in water (Fauldcarbo®; LibbsFarmacêutica, São Paulo, SP, Brazil) and was used as a standard anticancer compound.
# (§2) Cell viability assay (cytotoxicity) and compound stability assay. The viability of SCC cell lines and primary human fibroblast cells was evaluated using the MTT assay as in [48]. Briefly, the cells were grown in triplicates in 96-well plates (5 × 10^3 cells/well) until confluence. Then, the medium was removed, fresh medium was added, and the cells were returned to the incubator in the presence of different compounds. DMSO at the same concentrations was used as a 100% cell viability control. After 48 h, the cells were incubated with 5 mg/mL MTT reagent (3-(4,5-dimethyl-2-thiazolyl)-2,5-diphenyl-2-H-tetrazolium bromide) (Sigma-Aldrich Co., St. Louis, MO, USA) for 3.5 h. After that, formazan crystals were dissolved in MTT solvent solution (DMSO/methanol 1:1 v/v) and the absorbance at 560 nm was evaluated using an EPOCH microplate spectrophotometer (BioTek Instruments, Winooski, VT, USA) with the background absorbance at 670 nm subtracted.
# (§3) Statistical analysis, IC50 calculation. The data are presented as means ±\SD. IC50 values for the MTT assays were obtained by nonlinear regression using the […] 5.0 program (Intuitive Software for Science, San Diego, CA, USA) from at least three independent experiments. A dose–response (inhibitor) vs. response curve using the least squares method was used to determine the IC50, SD, and R^2 of the data. The selectivity index was calculated as SI = IC50 of the compound in normal oral fibroblast cells/IC50 of the same compound for each oral cancer cell line (SCC-4, SCC-9, and SCC-25) and the mean was calculated when indicated.
# [2] = test system: SCC25 OSCC cell line; assay: MTT cell viability assay (cytotoxicity), SCC25; format: cell-based, human
# Procedure: as §1, §2, §3
# [3] = test system: SCC4 OSCC cell line; assay: MTT cell viability assay (cytotoxicity), SCC4; format: cell-based, human
# Procedure: as §1, §2, §3
# [4] = MTT cell viability assay, normal fibroblasts; format: cell-based, human; conditions: human, primary normal human gingival fibroblasts (ATCC PCS-201-018)
# Procedure: as §1, §2, §3
# [5] = test system: Primary normal human gingival fibroblasts; assay: MTT cell viability assay, normal fibroblasts; format: cell-based; conditions: Homo sapiens, Fibroblast; primary gingival fibroblasts, 48 h, MTT; read-out: Primary Gingival Fibroblast IC50
# Procedure: as §1, §2, §3
# [6] = Hemolysis assay; format: cell-based; conditions: human, human erythrocytes, relative to triton x-100 = 100% lysis
# Procedure: Hemolysis assay. To determine the surfactant power of substances in biological membranes, a hemolysis assay was performed using human blood approved by the Research Ethics Committee of Universidade Federal Fluminense (CAAE: 43134721.4.0000.5626). Erythrocytes were collected for centrifugation at 1500 rpm for 15 min, washed with PBS (phosphate-buffered saline) supplemented with 10 mM glucose, and counted in an automatic cell counter (Thermo Fisher, Waltham, MA, USA). Erythrocytes were then plated in 96-well plates at a concentration of 4 × 10^8 cells/well in triplicates, and 10 µL of compounds was added at a final concentration of 300 µM in PBS with glucose (final volume 100 µL). In total, 10 µL of PBS was used as a negative control and 10 µL of PBS with 0.1% Triton ×100 as a positive control. Data reading was performed with EPOCH (BioTek Instruments, Winooski, VT, USA) at an absorbance of 540 nm, and the statistical data were generated using the […] Prism 5.0 program (Intuitive Software for Science, San Diego, CA, USA).
# [7] = test system: SCC9 cells; assay: Caspase 3/7 activity, flow cytometry; format: cell-based, human; conditions: SCC9, 2× IC50, 48 h
# Procedure: Phosphatidylserine exposure analysis (apoptosis). Cells of the SCC9 cell line were plated in 6-well plates (5 × 10^5 cells/well), trypsinized 48 h after treatment, labeled using the Annexin V-FITC Apoptosis Detection Kit according to the manufacturer’s protocol (#BMS500FI/300, Invitrogen), and analyzed by FACScalibur flow cytometry as in [50]. Furthermore, 5 × 10^4 SCC9 cells were plated in a 24-well plate containing 1 mL of DMEM/F12 with 10% FBS per well. CellEvent™ Caspase-3/7 Reagent (#R37111, Invitrogen) was diluted in a culture medium according to the manufacturer’s instructions. […] The cells were analyzed by flow cytometry at the time of 48 h of treatment.
# [8] = test system: SCC9 cells; assay: ROS production (ROS-Glo H2O2 assay); format: cell-based, human; conditions: SCC9, 2 × IC50, 3, 6, 24 and 48 h
# Procedure: ROS production. The hydrogen peroxide (H2O2) luminescence assay was performed using the ROS-Glo™ H2O2 assay kit (Promega Corporation, Madison, WI, USA). […] A plate with wells without cells was used as a control. The cells and cell-free wells remained in treatment at the times of interest and, 2 h before the completion of the times, the well volumes were removed to reduce to 40 µL per well. Then, the positive control of menadione, a polycyclic aromatic ketone based on 1,4-naphthoquinone, was used to treat its respective well, and H2O2 substrate was added for all treatments, followed by the incubation of the plate for the 2 h remaining. After the times of 3, 6, 24, and 48 h, the detection solution was added, and the plates remained at room temperature for 20 min, following the reading in the luminometer.
# [9] = test system: SCC9 cells; assay: Time-lapse video microscopy; format: cell-based, human; conditions: SCC9, 2 × IC50, 72 h time-lapse
# Procedure: Video microscopy. […] For 72 h, phase-contrast images of the same field were captured every minute using a Hamamatsu C2400 CCD camera (Hamamatsu, Japan). The images of each experimental condition were integrated into videos using ImageJ software (National Institute of Health, Bethesda, MD, USA), and different times (indicated) were selected according to the morphological change observed during the treatment.
structure (smiles),measurement,setting,value
"CC1(C)CC(=O)C2=C(C1)NC1=C(C(=O)c3ccccc3C1=O)C2c1ccc(Cl)cc1Cl (stereo not drawn) [4e, 12-(2,4-dichlorophenyl)-3,3-dimethyl-3,4-dihydrobenzo[b]acridine-1,6,11(2H,5H,12H)-trione]",IC50,"[1]; Homo sapiens, SCC-9, SCC9, 48 h, MTT (Table 1), read-out: SCC9—Oral Cancer IC50",14.7 µM
same,SCC9 S.I.,[1]; IC50 normal oral fibroblasts / IC50 SCC9,6.0
same,IC50,"[2]; Homo sapiens, SCC-25, SCC25, 48 h, MTT, read-out: Oral Tumor Cells SCC25 IC50",21.5 µM
same,SCC25 S.I.,[2]; IC50 normal oral fibroblasts / IC50 SCC25,4.1
same,IC50,"[3]; Homo sapiens, SCC-4, SCC4, 48 h, MTT, read-out: Oral Tumor Cells SCC4 IC50",53.8 µM
same,SCC4 S.I.,[3]; IC50 normal oral fibroblasts / IC50 SCC4,1.6
same,viability at 48 h,[4],> 75%
same,IC50,[5],88 µM
same,hemolysis at 300 µM,[6],< 3%
same,"active caspase 3/7 labeling, cells",[7],52.4% and ~ 52%
same,ROS production,[8],low production of ROS
same,cell morphology,[9],"formation of membrane blebs at early times, between 16 and 48 h, followed by cells shrinkage"
